Reference: patent US10385024B2, “Compounds and methods for inhibiting NHE-mediated antiport in the treatment of disorders associated with fluid retention or salt overload and gastrointestinal tract disorders” (Ardelyx, Inc., priority 2012, dated 2019)

Legend:
human NHE-3 = target: T1, human NHE-3 (Homo sapiens, UniProt P48764); test: Cell-based assay of NHE-3 activity (human NHE3 inhibition assay); details: OK cells with human NHE-3 gene, BCECF pH dye, 0-30 μM test compound; for IC50: read-out: Human NHE3 pIC50 (converted)
T1 construct: expressed in transfected cells; host or cells: Opossum kidney (OK) cells (ATCC), transfected by electroporation
T1 sequence (P48764 26-834): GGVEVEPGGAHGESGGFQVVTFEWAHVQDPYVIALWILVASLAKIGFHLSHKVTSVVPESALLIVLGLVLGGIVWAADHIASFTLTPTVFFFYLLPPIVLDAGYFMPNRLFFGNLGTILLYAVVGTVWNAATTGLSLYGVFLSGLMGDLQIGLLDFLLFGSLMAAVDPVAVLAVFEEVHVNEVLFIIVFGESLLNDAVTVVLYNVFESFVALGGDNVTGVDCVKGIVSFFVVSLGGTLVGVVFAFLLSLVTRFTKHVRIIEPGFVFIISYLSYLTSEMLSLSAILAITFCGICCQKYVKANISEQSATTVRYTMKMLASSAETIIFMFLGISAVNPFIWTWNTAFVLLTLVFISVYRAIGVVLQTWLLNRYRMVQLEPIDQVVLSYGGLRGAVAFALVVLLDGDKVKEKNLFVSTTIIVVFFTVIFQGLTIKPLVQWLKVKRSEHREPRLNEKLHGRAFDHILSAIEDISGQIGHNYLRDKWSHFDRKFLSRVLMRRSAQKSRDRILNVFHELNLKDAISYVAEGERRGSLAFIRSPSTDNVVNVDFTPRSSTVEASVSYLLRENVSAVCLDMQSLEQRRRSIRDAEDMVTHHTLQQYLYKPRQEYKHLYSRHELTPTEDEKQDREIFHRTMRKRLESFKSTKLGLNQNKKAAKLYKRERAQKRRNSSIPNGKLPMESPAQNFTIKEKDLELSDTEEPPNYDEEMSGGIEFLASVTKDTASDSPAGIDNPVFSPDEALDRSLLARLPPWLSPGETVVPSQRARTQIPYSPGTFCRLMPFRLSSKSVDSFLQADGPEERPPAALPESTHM
In short: (§1)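 Opossum kidney cells electroporated with rat or human NHE-3, loaded with 5 μM BCECF-AM in NH4Cl-HEPES pH 7.4 for 30 min at RT, then acidified 10 min in Na+-free choline HEPES. Na+-dependent pH recovery rates from BCECF fluorescence, averaged over ≥2 replicates, gave pIC50.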

Rat NHE-3 = target: T2, Rat NHE-3 (Rattus norvegicus, UniProt P26433); test: Cell-based assay of NHE-3 activity (rat NHE-3 prompt inhibition); details: OK cells with rat NHE-3 gene, compound present during pH recovery; for IC50: read-out: Rat NHE3 pIC50 (prompt) (converted)
T2 construct: expressed in transfected cells; host or cells: Opossum kidney (OK) cells (ATCC), transfected by electroporation
In short: as §1

[1] = test system: absorption of sodium from the intestinal lumen; test: Inhibition of intestinal sodium absorption (urinary sodium and fecal form); assay type: in vivo, Sprague-Dawley rats; details: rat; for response vs control in vivo at 3 mg/kg: 3 mg/kg oral gavage, urine 16 h post-dose, asterisks = significance vs vehicle (*P<0.05, **P<0.01, ***P<0.001), read-out: uNa (% of vehicle); for FFS: fecal form score, scale 1 (normal pellet) to 5 (liquid fecal streams), group average, 3 mg/kg oral, 16 h post-dose, vehicle = 1
In short: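 Sprague-Dawley rats (8 weeks, n=6) dosed by oral gavage with compound or water vehicle (10 mL/kg) in late afternoon, then housed in metabolic cages. Over 16 h, urinary sodium measured by ion chromatography and expressed as % of vehicle mean; fecal form scored 1–5, averaged from two observations.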

T2 sequence (P26433 29-831): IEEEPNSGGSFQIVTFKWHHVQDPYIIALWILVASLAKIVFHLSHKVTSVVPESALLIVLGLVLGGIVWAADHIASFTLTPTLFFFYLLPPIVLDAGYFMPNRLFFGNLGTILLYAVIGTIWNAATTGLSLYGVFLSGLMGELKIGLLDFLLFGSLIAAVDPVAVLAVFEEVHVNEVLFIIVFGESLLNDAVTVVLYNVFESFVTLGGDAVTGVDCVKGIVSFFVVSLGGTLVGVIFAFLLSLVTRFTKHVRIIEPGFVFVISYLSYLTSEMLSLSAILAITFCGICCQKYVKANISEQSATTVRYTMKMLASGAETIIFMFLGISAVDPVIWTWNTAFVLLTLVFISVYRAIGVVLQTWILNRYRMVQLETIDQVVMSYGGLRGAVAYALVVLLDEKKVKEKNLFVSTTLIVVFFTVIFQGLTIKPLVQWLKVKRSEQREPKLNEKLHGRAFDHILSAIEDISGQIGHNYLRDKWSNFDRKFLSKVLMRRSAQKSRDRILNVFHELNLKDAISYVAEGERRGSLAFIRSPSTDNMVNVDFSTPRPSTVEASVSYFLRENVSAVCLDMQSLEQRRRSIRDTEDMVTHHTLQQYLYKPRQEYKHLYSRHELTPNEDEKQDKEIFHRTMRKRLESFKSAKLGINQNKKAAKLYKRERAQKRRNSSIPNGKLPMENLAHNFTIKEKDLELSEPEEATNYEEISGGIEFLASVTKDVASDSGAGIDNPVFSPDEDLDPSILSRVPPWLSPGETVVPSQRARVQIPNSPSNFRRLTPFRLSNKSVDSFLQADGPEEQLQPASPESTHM

## CN1Cc2c(Cl)cc(Cl)cc2[C@H](c2cccc(S(=O)(=O)NCCOCCOCCNC(=O)CCC(CCC(=O)NCCOCCOCCNS(=O)(=O)c3cccc([C@@H]4CN(C)Cc5c(Cl)cc(Cl)cc54)c3)(CCC(=O)NCCOCCOCCNS(=O)(=O)c3cccc([C@@H]4CN(C)Cc5c(Cl)cc(Cl)cc54)c3)NC(=O)CCC(=O)O)c2)C1 [Example 40]
Human NHE-3
  Human NHE3 pIC50: C (C NHE3 pIC50 > 7)
Rat NHE-3
  Rat NHE3 pIC50 (prompt): C (C NHE3 pIC50 > 7)
[1]
  response vs control in vivo at 3 mg/kg: < 35%

## CN1Cc2c(Cl)cc(Cl)cc2[C@H](c2cccc(S(=O)(=O)NCCOCCOCCN(C)C(=O)NCCCN(CCCNC(=O)N(C)CCOCCOCCNS(=O)(=O)c3cccc([C@@H]4CN(C)Cc5c(Cl)cc(Cl)cc54)c3)CCCNC(=O)N(C)CCOCCOCCNS(=O)(=O)c3cccc([C@@H]4CN(C)Cc5c(Cl)cc(Cl)cc54)c3)c2)C1 [Example 55]
Human NHE-3
  Human NHE3 pIC50: C (C NHE3 pIC50 > 7)
Rat NHE-3
  Rat NHE3 pIC50 (prompt): B (B NHE3 pIC50 5-7)
[1]
  FFS: 2
  response vs control in vivo at 3 mg/kg: 35 to 75%

## CN1Cc2c(Cl)cc(Cl)cc2[C@H](c2cccc(S(=O)(=O)NCCOCCOCCNC(=O)CCC(CCC(=O)NCCOCCOCCNS(=O)(=O)c3cccc([C@@H]4CN(C)Cc5c(Cl)cc(Cl)cc54)c3)(CCC(=O)NCCOCCOCCNS(=O)(=O)c3cccc([C@@H]4CN(C)Cc5c(Cl)cc(Cl)cc54)c3)N(C)C)c2)C1 [Example 4, N^1,N^7-bis(2-(2-(2-(3-((S)-6,8-dichloro-2-methyl-1,2,3,4-tetrahydroisoquinolin-4-yl)phenylsulfonamido)ethoxy)ethoxy)ethyl)-4-(3-(2-(2-(2-(3-((S)-6,8-dichloro-2-methyl-1,2,3,4-tetrahydroisoquinolin-4-yl)phenylsulfonamido)ethoxy)ethoxy)ethylamino)-3-oxopropyl)-4-(dimethylamino)heptanediamide]
Human NHE-3
  IC50: < 0.1 µM
Rat NHE-3
  IC50: < 0.1 µM
[1]
  FFS: 2
  response vs control in vivo at 3 mg/kg: < 35%

## CN1Cc2c(Cl)cc(Cl)cc2[C@H](c2cccc(S(=O)(=O)NCCOCCOCCNC(=O)CCC(CCC(=O)NCCOCCOCCNS(=O)(=O)c3cccc([C@@H]4CN(C)Cc5c(Cl)cc(Cl)cc54)c3)(CCC(=O)NCCOCCOCCNS(=O)(=O)c3cccc([C@@H]4CN(C)Cc5c(Cl)cc(Cl)cc54)c3)NC(=O)NC(CO)(CO)CO)c2)C1 [Example 11, N^1,N^7-bis(2-(2-(2-(3-((S)-6,8-dichloro-2-methyl-1,2,3,4-tetrahydroisoquinolin-4-yl)phenylsulfonamido)ethoxy)ethoxy)ethyl)-4-(3-(2-(2-(2-(3-((S)-6,8-dichloro-2-methyl-1,2,3,4-tetrahydroisoquinolin-4-yl)phenylsulfonamido)ethoxy)ethoxy)ethylamino)-3-oxopropyl)-4-(3-(1,3-dihydroxy-2-(hydroxymethyl)propan-2-yl)ureido)heptanediamide]
Human NHE-3
  IC50: 0.1 to 10 µM
Rat NHE-3
  IC50: > 10 µM
[1]
  response vs control in vivo at 3 mg/kg: 35 to 75%

## CN1Cc2c(Cl)cc(Cl)cc2[C@H](c2cccc(S(=O)(=O)NCCOCCOCCNC(=O)CCC(CCC(=O)NCCOCCOCCNS(=O)(=O)c3cccc([C@@H]4CN(C)Cc5c(Cl)cc(Cl)cc54)c3)(CCC(=O)NCCOCCOCCNS(=O)(=O)c3cccc([C@@H]4CN(C)Cc5c(Cl)cc(Cl)cc54)c3)NC(=O)NCCS(=O)(=O)O)c2)C1 [Example 3]
Human NHE-3
  IC50: < 0.1 µM
Rat NHE-3
  IC50: < 0.1 µM
[1]
  response vs control in vivo at 3 mg/kg: < 35%

## CN(C)CC(=O)NC(CCC(=O)NCCOCCOCCNS(=O)(=O)c1cccc([C@@H]2CN(C)Cc3c(Cl)cc(Cl)cc32)c1)(CCC(=O)NCCOCCOCCNS(=O)(=O)c1cccc([C@@H]2CN(C)Cc3c(Cl)cc(Cl)cc32)c1)CCC(=O)NCCOCCOCCNS(=O)(=O)c1cccc([C@@H]2CN(C)Cc3c(Cl)cc(Cl)cc32)c1 [Example 14, N1,N7-bis(2-(2-(2-(3-((S)-6,8-dichloro-2-methyl-1,2,3,4-tetrahydroisoquinolin-4-yl)phenylsulfonamido)ethoxy)ethoxy)ethyl)-4-(3-(2-(2-(2-(3-((S)-6,8-dichloro-2-methyl-1,2,3,4-tetrahydroisoquinolin-4-yl)phenylsulfonamido)ethoxy)ethoxy)ethylamino)-3-oxopropyl)-4-(2-(dimethylamino)acetamido)heptanediamide]
Human NHE-3
  IC50: < 0.1 µM
Rat NHE-3
  IC50: < 0.1 µM
[1]
  response vs control in vivo at 3 mg/kg: < 35%

## CN1Cc2c(Cl)cc(Cl)cc2[C@H](c2cccc(S(=O)(=O)NCCOCCOCCNC(=O)CCC(CCC(=O)NCCOCCOCCNS(=O)(=O)c3cccc([C@@H]4CN(C)Cc5c(Cl)cc(Cl)cc54)c3)(CCC(=O)NCCOCCOCCNS(=O)(=O)c3cccc([C@@H]4CN(C)Cc5c(Cl)cc(Cl)cc54)c3)NC(=O)CCCC(=O)O)c2)C1 [Example 36]
Human NHE-3
  Human NHE3 pIC50: C (C NHE3 pIC50 > 7)
Rat NHE-3
  Rat NHE3 pIC50 (prompt): C (C NHE3 pIC50 > 7)
[1]
  response vs control in vivo at 3 mg/kg: < 35%

## CN1Cc2c(Cl)cc(Cl)cc2[C@H](c2cccc(S(=O)(=O)NCCOCCOCCNC(=O)NCCCC(N)(CCCNC(=O)NCCOCCOCCNS(=O)(=O)c3cccc([C@@H]4CN(C)Cc5c(Cl)cc(Cl)cc54)c3)CCCNC(=O)NCCOCCOCCNS(=O)(=O)c3cccc([C@@H]4CN(C)Cc5c(Cl)cc(Cl)cc54)c3)c2)C1 [Example 62]
Human NHE-3
  Human NHE3 pIC50: C (C NHE3 pIC50 > 7)
Rat NHE-3
  Rat NHE3 pIC50 (prompt): B (B NHE3 pIC50 5-7)
[1]
  response vs control in vivo at 3 mg/kg: 35 to 75%

## CN1Cc2c(Cl)cc(Cl)cc2[C@H](c2cccc(S(=O)(=O)NCCOCCOCCNC(=O)NCCCN(CCCNC(=O)NCCOCCOCCNS(=O)(=O)c3cccc([C@@H]4CN(C)Cc5c(Cl)cc(Cl)cc54)c3)CCCNC(=O)NCCOCCOCCNS(=O)(=O)c3cccc([C@@H]4CN(C)Cc5c(Cl)cc(Cl)cc54)c3)c2)C1 [Example 43, (S)—N,N′-(15-(1-(3-((S)-6,8-dichloro-2-methyl-1,2,3,4-tetrahydroisoquinolin-4-yl)phenylsulfonamido)-10-oxo-3,6-dioxa-9,11-diazatetradecan-14-yl)-10,20-dioxo-3,6,24,27-tetraoxa-9,11,15,19,21-pentaazanonacosane-1,29-diyl)bis(3-((S)-6,8-dichloro-2-methyl-1,2,3,4-tetrahydroisoquinolin-4-yl)benzenesulfonamide)]
Human NHE-3
  IC50: < 0.1 µM
Rat NHE-3
  IC50: 0.1 to 10 µM
[1]
  response vs control in vivo at 3 mg/kg: 35 to 75%

## CN1Cc2c(Cl)cc(Cl)cc2[C@H](c2cccc(S(=O)(=O)NCCOCCOCCNC(=O)NCCCC(CCCNC(=O)NCCOCCOCCNS(=O)(=O)c3cccc([C@@H]4CN(C)Cc5c(Cl)cc(Cl)cc54)c3)(CCCNC(=O)NCCOCCOCCNS(=O)(=O)c3cccc([C@@H]4CN(C)Cc5c(Cl)cc(Cl)cc54)c3)NC(=O)NC[C@H](O)[C@@H](O)[C@H](O)[C@H](O)CO)c2)C1 [Example 65]
Human NHE-3
  Human NHE3 pIC50: C (C NHE3 pIC50 > 7)
Rat NHE-3
  Rat NHE3 pIC50 (prompt): B (B NHE3 pIC50 5-7)
[1]
  response vs control in vivo at 3 mg/kg: 35 to 75%

## CN1Cc2c(Cl)cc(Cl)cc2[C@H](c2cccc(S(=O)(=O)NCCOCCOCCNC(=O)CCC(N)(CCC(=O)NCCOCCOCCNS(=O)(=O)c3cccc([C@@H]4CN(C)Cc5c(Cl)cc(Cl)cc54)c3)CCC(=O)NCCOCCOCCNS(=O)(=O)c3cccc([C@@H]4CN(C)Cc5c(Cl)cc(Cl)cc54)c3)c2)C1 [Example 2, 4-amino-N^1,N^7-bis(2-(2-(2-(3-((S)-6,8-dichloro-2-methyl-1,2,3,4-tetrahydroisoquinolin-4-yl)phenylsulfonamido)ethoxy)ethoxy)ethyl)-4-(3-(2-(2-(2-(3-((S)-6,8-dichloro-2-methyl-1,2,3,4-tetrahydroisoquinolin-4-yl)phenylsulfonamido)ethoxy)ethoxy)ethylamino)-3-oxopropyl)heptanediamide]
Human NHE-3
  IC50: < 0.1 µM
Rat NHE-3
  IC50: < 0.1 µM
[1]
  response vs control in vivo at 3 mg/kg: < 35%
